Tested on: Human peripheral blood mononuclear cells (PBMCs) as Responder cells, RPMI 1788 Stimulator cells
Assay: Mixed Lymphocyte Reaction (MLR) test
Type: cell-based
Conditions: 6 days coculture, 3H-thymidine incorporation
Summary of the method: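 Human PBMC responders (0.12×10^6) were cocultured 6 days with mitomycin C-treated RPMI 1788 stimulators (0.045×10^6) and compound in RPMI 1640 with 10% FCS, in triplicate. A ^3H-thymidine pulse on day 5, harvested 18 h later, measured proliferation (cpm), converted to % inhibition versus a compound-free MLR.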

[1] = Homo sapiens, RPMI-1788, lowest concentration giving 50% inhibition of the MLR

## Nc1nc(N2CCN(C(=O)COc3cccc([N+](=O)[O-])c3)CC2)c2nc(-c3ccc(F)cc3)sc2n1 [Example 129, 5-amino-2-(4-fluorophenyl)-7-(4-[2-(3-nitrophenoxy)acetyl]-piperazin-1-yl)-thiazolo[5,4-d]pyrimidine]
[1]
  IC50: 290 nM

## COc1ccc(OCC(=O)N2CCN(c3ncnc4sc(-c5ccc(F)cc5)nc34)CC2)cc1 [Example 300, 1-(4-(2-(4-fluorophenyl)thiazolo[5,4-d]pyrimidin-7-yl)piperazin-1-yl)-2-(4-methoxyphenoxy)ethanone]
[1]
  IC50: 5530 nM

## Nc1nc(N2CCN(C(=O)COc3ccc(Cl)cc3)CC2)c2nc(CCCc3ccc(F)cc3)sc2n1 [Example 290, 1-(4-(5-amino-2-(3-(4-fluorophenyl)propyl)thiazolo[5,4-d]pyrimidin-7-yl)piperazin-1-yl)-2-(4-chlorophenoxy)ethanone]
[1]
  IC50: 960 nM

## Nc1nc(N2CCN(C(=O)CCc3ccc(Br)cc3)CC2)c2nc(CCc3ccc(F)cc3)sc2n1 [Example 223, 1-(4-(5-amino-2-(4-fluorophenethyl)thiazolo[5,4-d]pyrimidin-7-yl)piperazin-1-yl)-3-(4-bromophenyl)propan-1-one]
[1]
  IC50: > 10000 nM

## Nc1nc(N2CCOCC2)c2nc(Cc3ccc(F)cc3)sc2n1 [Example 34, 2-(4-fluorobenzyl)-7-morpholino-thiazolo[5,4-d]pyrimidin-5-amine]
[1]
  IC50: > 10000 nM

## Nc1nc(N2CCN(C(=O)COc3ccc(Cl)cc3)CC2)c2cc(-c3ccccc3)sc2n1 [Example 329, 1-(4-(2-amino-6-phenylthieno[2,3-d]pyrimidin-4-yl)piperazin-1-yl)-2-(4-chlorophenoxy)ethanone]
[1]
  IC50: 330 nM

## Nc1nc(N2CCCN(C(=O)c3ccc(Cl)cc3)CC2)c2cc(-c3ccccc3)sc2n1 [Example 335, (4-(2-amino-6-phenylthieno[2,3-d]pyrimidin-4-yl)-1,4-diazepan-1-yl)(4-chlorophenyl)methanone]
[1]
  IC50: > 10000 nM

## O=C(COc1ccc(Cl)cc1)N1CCN(c2ncnc3sc(-c4ccc(F)cc4)nc23)CC1 [Example 301, 1-(4-(2-(4-fluorophenyl)thiazolo[5,4-d]pyrimidin-7-yl)piperazin-1-yl)-2-(4-chlorophenoxy)ethanone]
[1]
  IC50: 670 nM

## Nc1nc(N2CCN(C(=O)COc3ccc(Cl)cc3)CC2)c2nc(SCCc3ccccc3)[nH]c2n1 [Example 427, 1-(4-(2-amino-8-(phenethylthio)-9H-purin-6-yl)piperazin-1-yl)-2-(4-chlorophenoxy)ethanone]
[1]
  IC50: > 10000 nM

## Nc1nc(N2CCN(C(=O)COc3ccc(Cl)cc3)CC2)c2nc(C3(c4ccccc4)CC3)sc2n1 [Example 114, 5-amino-7-[4-(4-chlorophenoxyacetyl)piperazin-1-yl]-2-(1-phenylcyclopropyl)thiazolo[5,4-d]pyrimidine]
[1]
  IC50: 1560 nM

## COc1ccccc1NC(=O)N1CCN(c2nc(N)nc3sc(-c4ccc(F)cc4)nc23)CC1 [Example 219, 4-(5-amino-2-(4-fluorophenyl)thiazolo[5,4-d]pyrimidin-7-yl)-N-(2-methoxyphenyl)piperazine-1-carboxamide]
[1]
  IC50: 323 nM

## CSc1nc2c(N3CCN(C(=O)COc4ccc(Cl)cc4)CC3)nc(N)nc2s1 [Example 115, 5-amino-7-[4-(4-chlorophenoxyacetyl)piperazin-1-yl]-2-methylthio-thiazolo[5,4-d]pyrimidine]
[1]
  IC50: > 10000 nM

## Nc1nc(N2CCN(C(=O)COc3ccc(Br)cc3)CC2)c2nc(-c3ccc(F)cc3)sc2n1 [Example 235, 1-(4-(5-amino-2-(4-fluorophenyl)thiazolo[5,4-d]pyrimidin-7-yl)piperazin-1-yl)-2-(4-bromophenoxy)ethanone]
[1]
  IC50: 460 nM

## COc1ccc(OCC(=O)N2CCN(c3nc(N)nc4sc(CCc5cccc(OC)c5)nc34)CC2)cc1 [Example 253, 1-(4-(5-amino-2-(3-methoxyphenethyl)thiazolo[5,4-d]pyrimidin-7-yl)piperazin-1-yl)-2-(4-methoxyphenoxy)ethanone]
[1]
  IC50: 710 nM

## COCCCNc1nc(N)nc2sc(-c3ccc(F)cc3)nc12 [Example 32, 2-(4-fluorophenyl)-N-7-(3-methoxypropyl)thiazolo[5,4-d]pyrimidine-5,7-diamine]
Lowest concentration giving 50% inhibition of the MLR
  IC50: > 10000 nM

## Nc1nc(N2CCN(C(=O)COc3ccc(Cl)cc3)CC2)c2nc(C3CCCCC3)oc2n1 [Example 187, 5-amino-2-cyclohexyl-7-[4-(4-chlorophenoxyacetyl)piperazin-1-yl]oxazolo[5,4-d]pyrimidine]
[1]
  IC50: > 10000 nM

## Cc1cccc(NC(=O)N2CCN(c3nc(N)nc4sc(-c5cccnc5)nc34)CC2)c1 [Example 276, 4-(5-amino-2-(pyridin-3-yl)thiazolo[5,4-d]pyrimidin-7-yl)-N-m-tolylpiperazine-1-carboxamide]
[1]
  IC50: 1 nM

## Nc1nc(N2CCN(C(=O)c3ccc(Cl)cc3)CC2)c2nc(CCc3cccs3)sc2n1 [Example 156, 5-amino-2-(2-thiophen-2-ylethyl)-7-(4-(4-chloro-benzoyl)piperazin-1-yl)thiazolo[5,4-d]pyrimidine]
[1]
  IC50: > 10000 nM

## Nc1nc(N2CCN(C(=O)COc3cccc([N+](=O)[O-])c3)CC2)c2nc(CCc3ccc(F)cc3)sc2n1 [Example 131, 5-amino-2-[2-(4-fluorophenyl)ethyl]-7-(4-[2-(3-nitrophenoxy)acetyl]piperazin-1-yl)-thiazolo[5,4-d]pyrimidine]
[1]
  IC50: 3250 nM

## COc1ccc(CCc2nc3c(N4CCN(C(=O)COc5ccc(Br)cc5)CC4)nc(N)nc3s2)cc1OC [Example 256, 1-(4-(5-amino-2-(3,4-dimethoxyphenethyl)thiazolo[5,4-d]pyrimidin-7-yl)piperazin-1-yl)-2-(4-bromophenoxy)ethanone]
[1]
  IC50: 740 nM

## Nc1nc(N2CCN(C(=O)COc3ccc(Cl)cc3)CC2)c2nc(-c3ccc(F)cc3)n(Cc3ccccc3)c2n1 [Example 431, 1-(4-(2-amino-9-benzyl-8-(4-fluorophenyl)-9H-purin-6-yl)piperazin-1-yl)-2-(4-chlorophenoxy)ethanone]
[1]
  IC50: > 10000 nM

## Nc1nc(N2CCN(C(=O)COc3ccc(Cl)cc3)CC2)c2nc(-c3ccc(F)cc3)sc2n1 [Example 45, 1-(4-(5-amino-2-(4-fluorophenyl)thiazolo[5,4-d]pyrimidin-7-yl)piperazin-1-yl)-2-(4-chlorophenoxy)ethanone]
[1]
  IC50: 300 nM

## COc1ccc(OCC(=O)N2CCN(c3nc(N)nc4sc(CCCCc5ccc(F)cc5)nc34)CC2)cc1 [Example 293, 1-(4-(5-amino-2-(4-(4-fluorophenyl)butyl)thiazolo[5,4-d]pyrimidin-7-yl)piperazin-1-yl)-2-(4-methoxyphenoxy)ethanone]
[1]
  IC50: 930 nM

## Cc1cccc(NC(=O)N2CCN(c3nc(N)nc4sc(-c5ccc(F)cc5)nc34)CC2)c1 [Example 43, 4-(5-amino-2-(4-fluorophenyl)thiazolo[5,4-d]pyrimidin-7-yl)-N-m-tolylpiperazine-1-carboxamide]
[1]
  IC50: 300 nM

## Nc1nc(N2CCN(C(=O)COc3ccc(F)cc3)CC2)c2nc(-c3cccnc3)sc2n1 [Example 272, 1-(4-(5-amino-2-(pyridin-3-yl)thiazolo[5,4-d]pyrimidin-7-yl)piperazin-1-yl)-2-(4-fluorophenoxy)ethanone]
[1]
  IC50: 12 nM

## COc1ccc(OCC(=O)N2CCN(c3nc(N)nc4sc(-c5ccc(F)cc5)nc34)CC2)cc1 [Example 234, 1-(4-(5-amino-2-(4-fluorophenyl)thiazolo[5,4-d]pyrimidin-7-yl)piperazin-1-yl)-2-(4-methoxyphenoxy)ethanone]
[1]
  IC50: 37 nM

## Nc1nc(N2CCN(C(=O)COc3ccc(F)cc3)CC2)c2nc(-c3ccco3)sc2n1 [Example 209, 1-(4-(5-amino-2-(furan-2-yl)thiazolo[5,4-d]pyrimidin-7-yl)piperazin-1-yl)-2-(4-fluorophenoxy)ethanone]
[1]
  IC50: 55 nM

## Nc1nc(N2CCN(C(=O)CCc3ccccc3)CC2)c2cc(-c3ccc(F)cc3)sc2n1 [Example 343, 1-(4-(2-amino-6-(4-fluorophenyl)thieno[2,3-d]pyrimidin-4-yl)piperazin-1-yl)-3-phenylpropan-1-one]
[1]
  IC50: 6990 nM

## Nc1nc(N2CCN(C(=O)COc3ccccc3)CC2)c2cc(-c3ccccc3)sc2n1 [Example 332, 1-(4-(2-amino-6-phenylthieno[2,3-d]pyrimidin-4-yl)piperazin-1-yl)-2-phenoxyethanone]
[1]
  IC50: 780 nM

## Cc1cccc(NC(=O)N2CCN(c3nc(N)nc4sc(CCc5cccs5)nc34)CC2)c1 [Example 157, 5-amino-2-(2-thiophen-2-ylethyl)-7-(4-m-tolylcarbamoylpiperazin-1-yl)thiazolo[5,4-d]pyrimidine]
[1]
  IC50: 630 nM

## COCc1nc2c(N3CCN(C(=O)COc4ccc(Cl)cc4)CC3)nc(N)nc2o1 [Example 186, 5-amino-7-[4-(4-chlorophenoxyacetyl)piperazin-1-yl]-2-methoxylmethyloxazolo[5,4-d]pyrimidine]
[1]
  IC50: 1830 nM

## N#Cc1ccc(NC(=O)N2CCN(c3nc(N)nc4sc(CCc5ccc(F)cc5)nc34)CC2)cc1 [Example 229, 4-(5-amino-2-(4-fluorophenethyl)thiazolo[5,4-d]pyrimidin-7-yl)-N-(4-cyanophenyl)piperazine-1-carboxamide]
[1]
  IC50: 2660 nM

## Nc1nc(N2CCN(C(=O)COc3ccc(Cl)cc3)CC2)c2nc(C(c3ccc(F)cc3)C3CCCC3)sc2n1 (centres unmarked) [Example 151, 5-amino-2-[cyclopentyl-(4-fluorophenyl)methyl]-7-(4-[2-(4-chlorophenoxy)acetyl]piperazin-1-yl)thiazolo[5,4-d]pyrimidine]
[1]
  IC50: > 10000 nM

## Cc1ccc(CCc2nc3c(N4CCN(C(=O)COc5ccc(Cl)cc5)CC4)nc(N)nc3s2)cc1 [Example 260, 1-(4-(5-amino-2-(4-methylphenethyl)thiazolo[5,4-d]pyrimidin-7-yl)piperazin-1-yl)-2-(4-chlorophenoxy)ethanone]
[1]
  IC50: 820 nM

## Nc1nc(N2CCN(C(=O)OCc3ccccc3)CC2)c2nc(-c3ccc(F)cc3)sc2n1 [Example 40, benzyl-4-(5-amino-2-(4-fluorophenyl)thiazolo[5,4-d]pyrimidin-7-yl)piperazine-1-carboxylate]
[1]
  IC50: 4900 nM
